The values that follow are results of earlier work, collected in patent US10842805B2, “Compositions containing enriched natural crocin and/or crocetin, and their therapeutic or nutraceutical uses” (priority 2012, dated 2020).

The subject of the series is ethanol-induced inhibition of hippocampal long-term potentiation. As to conditions: mouse, in vivo.

Regarding `CC(/C=C/C=C(\C)C(=O)O)=C\C=C\C=C(C)\C=C\C=C(/C)C(=O)O` [crocetin], the “constituent to which the beneficial effect of saffron extract is attributed” value is listed as “not crocetin”.

With `CC(/C=C/C=C(\C)C(=O)O[C@@H]1O[C@H](CO[C@@H]2O[C@H](CO)[C@@H](O)[C@H](O)[C@H]2O)[C@@H](O)[C@H](O)[C@H]1O)=C\C=C\C=C(C)\C=C\C=C(/C)C(=O)O[C@@H]1O[C@H](CO[C@@H]2O[C@H](CO)[C@@H](O)[C@H](O)[C@H]2O)[C@@H](O)[C@H](O)[C@H]1O` [crocin, Crocetin-di-beta-D-gentiobiosyl ester], the “constituent to which the beneficial effect of saffron extract is attributed” value is “attributed to crocin”.
